One block for each molecule: values may come before it. Ends that are not written are not given here.
Assays:
[1] = system: Primary fibroblasts from Progeria patients; assay: Senescence screen (SA B-galactosidase staining) of polypeptide library; assay type: cell-based, human; conditions: 10 μM, 48 hours
Experimental: Primary fibroblasts isolated from Progeria patients can constitute a genetic model of early aging and cellular senescence in humans. Primary fibroblasts from Progeria patients were cultured in DMEM (Dulbecco's Modified Eagle's Medium) supplemented with 10% v.v. fetal bovine serum (FBS), and 1% v.v. of penicillin/streptomycin solution (1,000 U·mL-1). Cells were kept in a 5% CO2, 37° C. and 95% humidity atmosphere. After expansion, these cells were seeded in 96-well plates (1,000 cells per well) and, 6 hours after plating, were incubated with individual polypeptides from a proprietary library at 50 μM for 48 hours. Negative control comprised untreated cells, which received vehicle only; positive control group comprised cells incubated with 10 μM ABT-263, a senolytic compound for the same period. […] Three independent experiments including three technical replicates were performed.

HGPS HDFs = assay: PP2A modulators and senescence markers; assay type: cell-based, human; conditions: 48 hs; for cellular senescence (SA-BGal+ cells): Okadaic Acid 5-7.5 nM or DT-061 7.5 μM
Experimental: Since PP2A has not been explored for cellular senescence modulation, whether the treatment of HGPS HDFs with a PP2A inhibitor (Okadaic acid—OA) and activator (DT-061) would result in the modulation of cellular senescence markers was assessed. HGPS HDFs were treated with 5-7.5 nM Okadaic Acid or 7.5 μM DT-061 for 48 hs. Some cells were treated with both 5 nM Okadaic Acid and 12.5 μM Peptide 14 for 48 hours. The senescence level was determined by SA β-galactosidase staining and normalized to total cell number.

[2] = system: human primary fibroblasts isolated from 3 healthy donors; assay: Etoposide-induced senescence; assay type: cell-based; conditions: etoposide 20 μM
Experimental: Cellular senescence may be caused by several different stimuli. In order to assess whether Peptide 14 was effective against UVB-induced and chemically-induced senescence, human primary fibroblasts isolated from 3 healthy donors were used. These cells were cultured in DMEM (Dulbecco's Modified Eagle's Medium) supplemented with 10% v.v. fetal bovine serum (FBS), and 1% v.v. of penicillin/streptomycin solution (1,000 U mL-1). Cells were kept in a 5% CO2, 37° C. and 95% humidity atmosphere. After expansion, these cells were seeded in 96-well plates (4,000 cells per well) and, 6 hours after plating, were submitted to either etoposide (20 μM) treatment for 24 hours, or exposed twice to 0.05 J/cm^2 of UVB radiation. […] After incubation, relative cellular senescence (assessed by the activity of senescence associated β-galactosidase staining relative to untreated control) was analyzed and plotted in column graphs. ATRX foci were also assessed following ATRX immunofluorescence staining. Graphs were built using the average ATRX foci detected per nuclei. […] Data was analyzed using with either t-test or ANOVA followed by a Bonferroni post-hoc test. Statistical significance was determined as p-values equal or lower than 0.05 (FIG. 6).

[3] = system: ex vivo skin biopsies (donors); assay: Topical application to ex vivo skin biopsies; assay type: cell-based, human; conditions: vs untreated
Source text: Senescent cell accumulation in the skin has been related to facial wrinkling and perceived age. A formulation having a concentration of Peptide 14 in the formulation was adjusted (0.01% w/v) to support the skin penetration of the Peptide 14 of up to 2% into the dermis was applied to ex vivo skin biopsies (from donors). A topical retinol application group was used as an “anti-aging” control, due to its widespread and decades-long use in the field, along with a no treatment control group.

[4] = system: peripheral blood mononuclear cells (PBMCs); assay: PBMC mRNA of IFN-γ and IL-10 (RT-qPCR); assay type: cell-based, human
Experimental: The effect of Peptide 14 on T cell activation was assessed by treating PBMCs stimulated with phytohaemagglutinin (PHA) with Peptide 14. PHA usually can trigger lymphocyte activation and cell division. PBMCs that were untreated with PHA or Peptide 14 served as negative control of lymphocyte activation. In the phytohaemagglutinin group, the PBMCs were activated with 5 μg/mL of PHA for 5 days. In the Peptide 14 and PHA group, the PBMCs were activated with 5 μg/mL of PHA and treated with 3.12 μM of Peptide 14 for 5 days. In the Peptide 14 group, the PBMCs were treated with 3.12 μM of Peptide 14 for 5 days. In the rapamycin group, the PBMCs were treated with 100 nM of rapamycin, a well-known immunosuppressive drug for 5 days. In the rapamycin+PHA group, the PBMCs were activated with 5 μg/mL of PHA and treated with 100 nM of rapamycin for 5 days. […] IFN-γ is typically produced in lymphocytes stimulated by PHA and may be used as marker of PBMC stimulation level. IL-10 is an anti-inflammatory cytokine. The cells from each of the experimental groups were processed for total RNA isolation, reverse transcription of the RNA and RT-qPCR. Data is represented as relative expression normalized to ubiquitous gene expression and untreated PBMC negative control.

[5] = system: Primary fibroblasts from Progeria patients; assay: Senescence in Progeria fibroblasts (LKGIL, WLKGI); assay type: cell-based, human; conditions: 500 nM, 5 μM, 50 μM

Molecule: CC1(C)CCC(c2ccc(Cl)cc2)=C(CN2CCN(c3ccc(C(=O)NS(=O)(=O)c4ccc(N[C@H](CCN5CCOCC5)CSc5ccccc5)c(S(=O)(=O)C(F)(F)F)c4)cc3)CC2)C1 [ABT-263]
cellular toxicity (cell number) [1]: cellular toxicity
relative cellular senescence (SA B-galactosidase staining) ([1]; positive control): significant reduction of cellular senescence

Molecule: O=S(=O)(N[C@@H]1CCC[C@H](N2c3ccccc3Oc3ccccc32)[C@H]1O)c1ccc(OC(F)(F)F)cc1 [DT-061]
cellular senescence (SA-BGal+ cells) (HGPS HDFs): SA-BGal+ cell reduction

cellular senescence level (SA β-galactosidase) ([2]; 24 hours (senescence inducer)): significant increase
Molecule: COc1cc([C@@H]2c3cc4c(cc3[C@@H](O[C@@H]3O[C@@H]5CO[C@@H](C)O[C@H]5[C@H](O)[C@H]3O)[C@H]3COC(=O)[C@H]23)OCO4)cc(OC)c1O [Etoposide, etoposide]
ATRX foci nuclear accumulation (average ATRX foci/cell) ([2]; 24 hours): significant increase

Molecule: C=C1[C@@H](O)[C@@H]2O[C@]3(CC[C@H](/C=C/[C@@H](C)[C@@H]4CC(C)=C[C@@]5(O[C@H](C[C@@](C)(O)C(=O)O)CC[C@H]5O)O4)O3)CC[C@H]2O[C@@H]1[C@@H](O)C[C@H](C)[C@H]1O[C@@]2(CCCCO2)CC[C@H]1C [OA, Okadaic acid]
cellular senescence (SA-BGal+ cells) (HGPS HDFs): significant increase
CDKN1A expression (HGPS HDFs; Okadaic Acid 5-7.5 nM): significant increase
CXCL1 (SASP marker) expression (HGPS HDFs; Okadaic Acid 5-7.5 nM): significant increase
IL6 (SASP marker) expression (HGPS HDFs; Okadaic Acid 5-7.5 nM): significant increase

Ki-67 expression, epidermis [3]: significantly increased
Molecule: CC1=C(/C=C/C(C)=C/C=C/C(C)=C/CO)C(C)(C)CCC1 [Retinol]
B2M expression, dermis [3]: significantly decreased
HAS2 expression, dermal samples [3]: increase
IL8 level, epidermis [3]: significantly increased
P16 mRNA expression, dermis [3]: significant increase
P16 mRNA expression, epidermis [3]: significant increase
dermal Ki67 expression [3]: significantly induced
dermal collagen 1 expression [3]: significantly induced
keratin 1 expression, epidermis [3]: significantly reduced
keratin 14 expression, epidermis [3]: significantly reduced

Molecule: CO[C@H]1C[C@@H]2CC[C@@H](C)[C@@](O)(O2)C(=O)C(=O)N2CCCC[C@H]2C(=O)O[C@H]([C@H](C)C[C@@H]2CC[C@@H](O)[C@H](OC)C2)CC(=O)[C@H](C)/C=C(\C)[C@@H](O)[C@@H](OC)C(=O)[C@H](C)C[C@H](C)/C=C/C=C/C=C/1C [rapamycin]
relative expression level of IL-10 (negative control = 1) ([4]; single agent, 5 days (Peptide 14 3.12 μM; rapamycin 100 nM; PHA 5 μg/mL)): about 2.5
relative expression level of IL-10 (negative control = 1) ([4]; with 5 μg/mL PHA, 5 days (Peptide 14 3.12 μM; rapamycin 100 nM)): about 0.2

Molecule: LKGIL [LKGIL]
cellular toxicity (relative cell number) [5]: No cellular toxicity

Molecule: WLKGI [WLKGI]
cellular toxicity (relative cell number) [5]: No cellular toxicity

Reference: patent US20250352608A1, “POLYPEPTIDES HAVING ANTI-INFLAMMATORY EFFECTS AND USES THEREOF” (OneSkin, Inc., priority 2020, published 2025)
